These results are taken from PubChem BioAssay AID504726 (Broad Institute, 2011).

Active and inactive are the calls of the source.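 The calls were made as follows: active = fitted half-maximal concentration for a cytotoxic signal drop no higher than ten times the top valid dose tested; inconclusive = flat curve between -70 and -30 percent, or an unreliable fit; inactive = flat within 30 percent, signal rise, or potency beyond limit.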

This assay in a line: viability loss in HeLa cells – cell-based, 24 h, cherry-picked samples, cytotoxicity control, dose response (AID 504726).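 Also: 0% = DMSO neutral controls and -100% = mitoxantrone positive controls.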 Particulars: HeLa viability, CellTiter-Glo ATP luminescence, 24 h; at 35 µM (top of the series).
`Cc1sc2nnn(CC(=O)N3CCN(C(=O)c4ccco4)CC3)c(=O)c2c1C`: the activity change, negative = cytotoxicity was -4.76% (inactive). The same measure for `COc1ccc(C2C(C(=O)c3cccs3)=C(O)C(=O)N2c2nncs2)cc1` (stereo unspecified): -14.2% (inactive); for `CCN(C(=O)COC(=O)c1nc2nc(C)cc(C)n2n1)C1CCCCC1`: 5.26% (inactive); for `CCc1ccc[n+](-c2[nH]c(=O)sc2/C=N/NC([S-])=Nc2ccccc2)c1`: -14.2% (inactive). Turning to `CC(C(=O)O)N1C(=O)/C(=C/C=C/c2ccco2)SC1=S` (stereo unspecified), the activity change, negative = cytotoxicity was -13.5% (inactive).

`CCCc1nc(NCc2ccccn2)c2nnn(Cc3ccccc3F)c2n1`: the activity change, negative = cytotoxicity is -9.25% (inactive). In the case of `CCOC(=O)C1C2C=CC3(CN(c4cccc(Cl)c4)C(=O)C13)O2` (stereo unspecified) it was -5.58% (inactive); in that of `c1ccc2[nH]c3cc4ncnc4cc3nc2c1`, 5.9% (inactive); in that of `O=C(Cn1ncc(N2CCCC2)c(Cl)c1=O)c1ccc(Cl)cc1`, 7.35% (inactive). The same measure for `O=C(O)c1ccccc1NS(=O)(=O)c1ccc(N/N=C/c2ccc(O)c(O)c2)c([N+](=O)[O-])c1`: -10.9% (inactive).

As to `CSCCC(NC(=O)c1ccccc1Cl)C(=O)N1CCCC(C)C1` (stereo unspecified), the activity change, negative = cytotoxicity is -15.7% (inactive). In the case of `Cc1ccc2c(c1)nnn2C1CCN(C(=O)c2cccs2)CC1` it was -7.39% (inactive); in that of `CC1CCCN(C(=O)C(=O)c2cn(CC(=O)N3CCCCCC3)c3ccccc23)C1` (stereo unspecified), -6.83% (inactive); in that of `CCCCc1ccc(C(=O)O)nc1`, -11.4% (inactive). In the case of `COc1ccc(NS(=O)(=O)c2ccc3c(c2)[C@H]2C=CC[C@H]2[C@@H](c2ccc(C(=O)O)cc2)N3)cc1`, the activity change, negative = cytotoxicity is -3.11% (inactive). The same measure for `CC(=O)N(C(C)=O)N1C(=O)c2cccc3c(N4CCOCC4)ccc(c23)C1=O`: -2.78% (inactive); for `O=C(NC1(O)C(=O)c2ccccc2C1=O)c1c(Cl)cccc1Cl`: -4.52% (inactive); for `COc1cc(OC)cc(C(=O)NC2CC3CCC(C2)N3C)c1` (stereo unspecified): 3.6% (inactive). The same measure for `Cc1ccccc1NC(=O)CN1C(=O)N/C(=C\c2cccn2-c2cccc(C(=O)O)c2)C1=O`: -8.21% (inactive); for `O=C(NCC1CCCO1)c1cccc(S(=O)(=O)N(Cc2ccccc2)c2ccccc2)c1` (stereo unspecified): -6.52% (inactive).

On to `O=C(O)C1(c2ccccc2)CCN(S(=O)(=O)c2ccc(Cl)s2)CC1`, for which the activity change, negative = cytotoxicity is -1.76% (inactive). In the case of `O=C(CCn1c(=S)oc2ccccc21)N1CCN(c2ccc(F)cc2)CC1` it was 2.32% (inactive). The same measure for `COc1ccc(CC(=O)O/N=C(\N)c2ccc(OC)cc2)cc1`: -11.5% (inactive). Take `COc1ccc(-c2nc(C(=O)O)cs2)cc1OC`: the activity change, negative = cytotoxicity was -5.71% (inactive). In the case of `CCOC(=O)c1sc(NC(=O)CSC(=S)N2CCN(C)CC2)nc1C` it was -7.44% (inactive); in that of `CC(C)(C)OC(=O)N1CCC[C@H]1c1nnc(SCc2cccc(Cl)c2)o1`, -8.06% (inactive). The same measure for `NC1=NC[C@@H](Cc2ccc(O)cc2)N1CCc1cc(C(F)(F)F)cc(C(F)(F)F)c1`: -9.29% (inactive). The same measure for `O=C1c2cccc3c(O)ccc(c23)C(=O)N1c1ccc(Cl)cc1`: -8.83% (inactive); for `O=C(O)CCCCCn1c(SCC(=O)c2ccc(O)c(O)c2)nc2ccsc2c1=O`: -16.5% (inactive). With `C=CC1=C(C(=O)O)N2C(=O)[C@@H](NC(=O)/C(=N/OCC(=O)O)c3csc(N)n3)[C@H]2SC1`, the activity change, negative = cytotoxicity is -13.9% (inactive). The same measure for `Cc1ccc(S(=O)(=O)Nc2ccc(Br)cc2C(NCC(=O)O)c2ccccc2)cc1` (stereo unspecified): 0.422% (inactive); for `COC(=O)C[n+]1cccc2ccccc21`: -6.11% (inactive); for `O=C(O)c1[nH]c2ccccc2c1C(c1cc(Cl)cc([N+](=O)[O-])c1O)c1c(C(=O)O)[nH]c2ccccc12`: -6.4% (inactive). In the case of `Cc1cc2nc(SCCN3CCOCC3)[nH]c2cc1C` it was -23.1% (inactive); in that of `CN1CCN(CCCNC(=O)c2cc3c(-c4ccc(Cl)cc4)nn(C)c3s2)CC1`, -18.2% (inactive). In the case of `CCOC(=O)N1CCN(C(=S)NC(=O)c2cccc(OC)c2)CC1` it was -2.14% (inactive); in that of `CCCCn1c(N)c(N(CCOC)C(=O)c2cc(C)oc2C)c(=O)[nH]c1=O`, -6.37% (inactive); in that of `CCCc1cc(C(=O)Nc2ccc(C(=O)c3ccc(C)cc3)cc2)n(C)n1`, 2.14% (inactive).

In the case of `CCCc1nnc(NC(=O)CCC(=O)NCc2ccc(OC)cc2)s1`, the activity change, negative = cytotoxicity was -1.54% (inactive). For the compound `Cc1cccc(NC(=O)CN2C(=O)NC(C)(c3ccc4ccccc4c3)C2=O)n1` (stereo unspecified), the activity change, negative = cytotoxicity was -4.54% (inactive). In the case of `S=c1[nH]nc([C@@H]2C[C@H]2c2ccccc2)n1-c1ccccc1Cl`, the activity change, negative = cytotoxicity is -6.51% (inactive). In the case of `O=S(=O)(O)c1cccc2cccc(Nc3ccccc3)c12` it was -4.31% (inactive). Consider `Fc1ccc(-c2cc(C(F)(F)F)nc(-n3cc(Cl)cn3)n2)cc1`, for which the activity change, negative = cytotoxicity was -12% (inactive). In the case of `CCn1c(=O)c(C(=O)NCCN2CCCCC2)c(O)c2ccccc21` it was 1.6% (inactive).

Take `COc1ccc(/C=C/c2cc(C(F)(F)F)[nH]c(=O)n2)cc1OC`: the activity change, negative = cytotoxicity was -6.08% (inactive). In the case of `Cc1n[nH]c(C)c1N1C(=O)c2cccc3c(N4CCCCCC4)ccc(c23)C1=O` it was -15.8% (inactive); in that of `S=c1c2c(nc3nc[nH]n13)CCC2`, -7.9% (inactive); in that of `Cc1ccc(C)c(OCC(=O)N(Cc2nnc(-c3ccccc3Cl)o2)C2CC2)c1`, -0.736% (inactive). In the case of `COc1ccc(C(C)=O)cc1CN(C)C` it was 9% (inactive); in that of `O=C(O)c1ccc(-n2cccc2/C=C2/NC(=O)N(c3cccc(Cl)c3)C2=O)cc1`, -3.84% (inactive). Regarding `CCN(CC(=O)NCc1cccs1)C(=O)c1ccc(S(=O)(=O)Nc2ccccc2C)cc1`, the activity change, negative = cytotoxicity was 2.2% (inactive). Take `O=C(O)/C=C/c1ccccc1Oc1ccccc1`: the activity change, negative = cytotoxicity is -8.62% (inactive). On to `CCN(C(=O)COC(=O)CNS(=O)(=O)c1ccc(SC)c([N+](=O)[O-])c1)C1CCCCC1`, for which the activity change, negative = cytotoxicity was -5.61% (inactive).

As to `CC(C)(CS(=O)(=O)[O-])NC(=O)CC[N+](C)(C)CCO`, the activity change, negative = cytotoxicity is 2.35% (inactive). `CC1Cc2ccccc2N1C(=O)CCS(=O)(=O)c1cccs1` (stereo unspecified): the activity change, negative = cytotoxicity is -6.91% (inactive). In the case of `CCn1c(O)c(N=Nc2cccc(S(=O)(=O)N3CCOCC3)c2)c(=O)n(CC)c1=S` it was 7.72% (inactive). In the case of `O=C1c2ccccc2C(Nc2ccc3c(c2)OCCO3)N1Cc1ccc2c(c1)OCO2` (stereo unspecified) it was -13.3% (inactive); in that of `CCCCn1c(=O)[nH]c2nc3cc(N)ccc3nc2c1=O`, -9.99% (inactive).

Take `C=C1c2cccc(O)c2C(O)=C2C(=O)[C@]3(O)C(O)=C(C(N)=O)C(=O)[C@@H](N(C)C)[C@@H]3[C@@H](O)[C@H]12`: the activity change, negative = cytotoxicity is -2.76% (inactive).

As for `CCOC(=O)C1Nc2ccc(C(=O)O)cc2C2C=CCC12` (stereo unspecified), the activity change, negative = cytotoxicity is -9.32% (inactive). In the case of `CCOc1ccc(-n2c(Cc3cc(=O)[nH]c(=O)[nH]3)nnc2SCc2cccnc2)cc1` it was -1.5% (inactive).

As to `CCN(CC)S(=O)(=O)N1CCN(S(=O)(=O)N2CCOCC2)CC1`, the activity change, negative = cytotoxicity is 1.89% (inactive). The same measure for `Cc1ccc(OCC(=O)NC(=S)Nc2cccc(NC(=O)c3ccc(Cl)cc3Cl)c2)cc1`: -4.71% (inactive). In the case of `O=C(O)/C=C/C(=O)Nc1ccc(Cc2ccc(NC(=O)/C=C/C(=O)O)cc2)cc1` it was 6.62% (inactive); in that of `COc1ccc(-c2cnc3n2CCCCC3)cc1`, 0.279% (inactive); in that of `CCN(CC(=O)Nc1c(F)cccc1F)C(=O)CCCc1cccs1`, -23.5% (inactive). The same measure for `Cc1nc2c(=O)[nH]c(=S)[nH]c2[nH]c1=O`: 1.86% (inactive); for `CC(/C=C1\SC(=S)N(CCCC(=O)Nc2ccc(C(=O)O)cc2)C1=O)=C\c1ccccc1`: 3.31% (inactive); for `CCOC(=O)C1CCCN(C(=O)C2c3ccccc3Oc3ccccc32)C1` (stereo unspecified): -6.62% (inactive). `O=C(C1CCCO1)N1CCN(c2ncccn2)CC1` (stereo unspecified): the activity change, negative = cytotoxicity was -0.396% (inactive). The same measure for `CC(OC(=O)CCN1C(=O)C2CC=CCC2C1=O)C(=O)Nc1ccc(F)cc1` (stereo unspecified): -6.8% (inactive); for `COc1ccc(NC(=O)Cc2nnc(SCC(=O)Nc3nccs3)n2C)cc1`: 5.46% (inactive). In the case of `Cc1cc(C)n(CC(=O)NNC(=O)CC(C)c2ccccc2)n1` (stereo unspecified) it was -9.44% (inactive); in that of `O=C(Nc1ccc2c(c1)OCO2)N1CCCc2ccccc21`, -15.9% (inactive). In the case of `O=C(c1cccc(S(=O)(=O)NCc2ccccc2)c1)N1CCN(c2ccccc2Cl)CC1` it was 0.089% (inactive); in that of `CCc1noc(C)c1C(=O)N1CCCC(N2CCN(c3ccc(F)cc3)CC2)C1` (stereo unspecified), -1.12% (inactive).
